Laboratory results from US20220133753A1, “COMPOSITIONS AND METHODS USEFUL FOR TREATING DISEASES CHARACTERIZED BY INSUFFICIENT PANTOTHENATE KINASE ACTIVITY” (Comet Therapeutics, Inc., priority 2016, published 2022).
Entries after “also recorded” stand apart in the source; their conditions may differ.

Columns and labels:
[1] = Conversion of CoA in human serum by HPLC; format: in vitro ADME
Text: The conversion of CoA to 4′-phosphopantetheine was further investigated in mouse serum and in human serum.

[2] = system: homozygous dPPCDC mutants and dPPCDC RNAi expressing flies; assay: Drosophila dPPCDC mutant and dPPCDC RNAi flies, development, lifespan and fertility with CoA or Vitamin B5; format: in vivo, Drosophila melanogaster
Experimental: Drosophila Maintenance and Crosses: Drosophila melanogaster stocks/crosses were raised on standard cornmeal agar fly food (containing water, agar 17 g/L, sugar 54 g/L, yeast extract 26 g/L and nipagin 1.3 g/L) at 25° C. The stocks were either obtained from the Bloomington Stock Centre (Indiana University, USA), VDRC (Vienna Drosophila RNAi Collection, Vienna, Austria) or from the Exelixis Collection (Harvard Medical School) and rebalanced to generate eGFP-positive balancers. The stocks used were: w1118; dPANK/fbl1 hypomorph5,6; dPANK/fblnull (y[1] w[*]; Mi{y[+mDint2]=MIC}fbl[MI04001]/TM3, Sb[1] Ser[1], Bloomington 36941); dPPCDC mutant (w[1118], PBac{w[+mC]=WH}Ppcdc[f00839]/CyO, Bloomington 18377); UAS-dPPCDCRNAi line (VDRC 104495); dCOASY mutant (PBac{RB}Ppat-Dpck[e00492], Exelixis). The UAS-RNAi constructs were expressed ubiquitously using the Actin-Gal4 drivers (y[1] w[*]; P{w[+mC]=Act5C-GAL4}25FO1/CyO, y[+], Bloomington 4414). […]
Drosophila Life Span: One-day old adults of Drosophila homozygous mutants or RNAi-constructs expressing lines, were collected with appropriate controls and were kept on standard fly food at 25° C. with or without CoA or Vitamin B5 (Sigma) at necessary concentration (50 ul added on top of the fly food and dried). The flies were counted every 12-24 hrs and flipped to new fly food vials with or without CoA or Vitamin B5.
Drosophila Ovary Rescue Experiment: UAS-dPPCDC RNAi constructs were ubiquitously expressed under the control of Actin-Gal4. […] The vials (or plates) from the crosses (with eggs that were being laid during the 4 day period of CoA rescue) were kept for another 10 days and offspring numbers were counted after eclosion.
Drosophila Ovary dissection and staining: Drosophila ovaries were collected in cold PBS and fixed in 4% formaldehyde (from methanol-free 16% Formaldehyde Solution, Thermo Scientific) for 45 min at RT. […] Finally the samples were mounted in 80% glycerol and analyzed on a Zeiss-LSM780 NLO confocal microscope with Zeiss Zen software. […]

[3] = Mice CoA intravenous injection study; format: in vivo, mouse; conditions: i.v.
Experimental: Sample preparation for mass spectrometry and instrumental parameters: Samples were briefly washed with ice-cold PBS solution. Samples were then sonicated thoroughly in 100 μl ice-cold milliQ (MQ) water containing 50 mM Tris(2-carboxyethyl)phosphine hydrochloride. Subsequently 100 ul saturated ammonium sulfate was added to each sample and centrifuged for 20 min at 10° C., 16100 rcf to collect supernatant. To 150 μl of supernatant, 15 ul of ammonium hydroxide (12.5%) was added and 20 μl was injected for LC-MS (liquid chromatography-mass spectrometry) analysis. For mouse plasma analysis, 50 ul of MQ water containing 50 mM Tris (2-carboxyethyl)phosphine hydrochloride was added to 50 ul of plasma and processed further as mentioned above. Appropriate dilution series of standard CoA, PPanSH and PPanSH(D4) was processed similarly before analysis. […] The flow was maintained at 1 ml/min with optimized mobile phase gradient of MQ water (A), 200 mM NH4Ac in 95/5 MQ water/acetonitrile adjusted to pH 4.5 with acetic acid (B), and acetonitrile (C). The separated analytes were detected with positive mode mass spectrometry under unit resolution. […] The absolute concentration was finally calculated using linear regression analysis of respective standard compounds, except CoA(D4) which was estimated indirectly using CoA standards. […]

[4] = system: homozygous dCOASY mutants; assay: Drosophila dCOASY mutants, larval development with CoA or Vitamin B5; format: in vivo, Drosophila melanogaster; conditions: added to the food
Experimental: Drosophila Maintenance and Crosses: Drosophila melanogaster stocks/crosses were raised on standard cornmeal agar fly food (containing water, agar 17 g/L, sugar 54 g/L, yeast extract 26 g/L and nipagin 1.3 g/L) at 25° C. The stocks were either obtained from the Bloomington Stock Centre (Indiana University, USA), VDRC (Vienna Drosophila RNAi Collection, Vienna, Austria) or from the Exelixis Collection (Harvard Medical School) and rebalanced to generate eGFP-positive balancers. The stocks used were: w1118; dPANK/fbl1 hypomorph5,6; dPANK/fblnull (y[1] w[*]; Mi{y[+mDint2]=MIC}fbl[MI04001]/TM3, Sb[1] Ser[1], Bloomington 36941); dPPCDC mutant (w[1118], PBac{w[+mC]=WH}Ppcdc[f00839]/CyO, Bloomington 18377); UAS-dPPCDCRNAi line (VDRC 104495); dCOASY mutant (PBac{RB}Ppat-Dpck[e00492], Exelixis). The UAS-RNAi constructs were expressed ubiquitously using the Actin-Gal4 drivers (y[1] w[*]; P{w[+mC]=Act5C-GAL4}25FO1/CyO, y[+], Bloomington 4414). Heterozygous flies/larvae for the mutants and the Actin-Gal4 driver crossed to isogenic w1118 flies (Actin-Gal4/+) were used as controls for the RNAi-constructs expressing flies.
Drosophila Larval Collection and Larval Count Experiment: One week old flies (in the ratio 10 females and 5 males) were kept on 5 ml of standard fly food in a vial at 25° C. with or without various concentrations of CoA or Vitamin B5 (Sigma). […]

SMILES: CC(C)(COP(=O)(O)OP(=O)(O)OC[C@H]1O[C@@H](n2cnc3c(N)ncnc32)[C@H](O)[C@@H]1OP(=O)(O)O)[C@@H](O)C(=O)NCCC(=O)NCCS [CoA, Coenzyme A]
- conversion of CoA in serum [1]: converted to 4′-phosphopantetheine
- egg production and fertility of females ([2]; dPPCDC RNAi expressing females): improved egg-production significantly; also recorded: produced a significant number of eggs; also recorded: produced viable eggs that resulted in offspring
- lifespan with CoA ([2]; dPPCDC RNAi expressing flies, CoA added to the food, from 10 days without): 30 days
- development with CoA ([2]; homozygous dPPCDC mutants, CoA added to the food): extended larval development to late pupal stage
- conversion of injected CoA in plasma ([3]; 30 minutes, HPLC): rapidly converted to 4′-phosphopantetheine
- 4′-phosphopantetheine in plasma after CoA injection ([3]; 6 hrs, mass spectrometry): elevated levels of PpanSH; also recorded: still present
- rescue of the phenotype [4]: did not result in a significant rescue
